Values of other authors in patent US20150025027A1 (PHARTRIALS PERQUISAS FARMACÊUTICAS LTDA, priority 2012, published 2015).
Converted amounts (≈) assume the structure as drawn.

Experiments:
[1] = not given; remark: listed apart in the source
[2] = not given; remark: listed apart in the source
[3] = not given; remark: listed apart in the source
[4] = high-risk, obese population; vs. 10% in comparison group

Structure (SMILES)	log P	solubility in water [1]	half-life ([2]; in vivo)	weight loss in humans [3]	time to peak plasma concentration ([2]; after oral administration)	time to plasma concentrations in the state of equilibrium ([2]; days of treatment)	share of the dose administered per metabolite ([2]; each of six metabolites)	dose metabolized ([2]; forming six metabolites)	dose administered eliminated through the urine ([2]; in vivo)	oral bioavailability ([2]; oral)	cardiovascular outcomes (AMI, CVA, cardiorespiratory failure or death) in patients receiving the drug [4]
CC(NC(C)(C)C)C(=O)c1cccc(Cl)c1 (stereo not shown) [Bupropion, 1-(3-chlorophenyl)-2-{(1,1-dimethyl)-amino]-1-propanone]	3.6	312 mg/mL (≈ 1300 mM)	24 h	–	–	–	–	–	–	–	–
CC1(C)OC2CO[C@@]3(COS(N)(=O)=O)OC(C)(C)O[C@H]3C2O1 (stereo partly shown) [Topiramate]	−0.7	9.8 mg/mL (≈ 28.9 mM)	–	effective in weight loss	2 h	4 days	≤ 5%	30%	70%	80%	–
CC(C)CC(N(C)C)C1(c2ccc(Cl)cc2)CCC1 (stereo not shown) [sibutramine]	–	–	–	–	–	–	–	–	–	–	11.4%
